Structures can show the parent of a compound that is named as a salt. Where two headings read alike, the source gives them in different places.
Key:
[1] = target: ERα (Homo sapiens (Human), UniProt P03372); assay: ERα degradation (MCF7 cells), in-cell Western; format: cell-based; conditions: for IC50: inflection point of the degradation in response to ligand concentration
Procedure: ERα Degradation (MCF7 Cells)
(§1) The column titled MCF7 IC50 reports the inflection point of the inhibition of transcription in MCF7 cells as described above. Percentage ERα remaining reports the remaining ERα protein measured at 10 μM concentration of the ligand as described above. The column ERα IC50 reports the inflection point of the degradation in response to the ligand concentration.

[2] = target: ER (endogenous, MCF7 cells) (Homo sapiens (Human), UniProt P03372); assay: ER transcription assay (MCF7 cells), ERE-luciferase reporter; format: cell-based; conditions: read-out: MCF7 IC50
From the text: ER Transcription Assay (MCF7 Cells)
The ER transcription assay is a reporter assay that is based on the ability of ER to induce transcription from a luciferase reporter gene containing estrogen response elements (EREs) in the promoter/enhancer region. When the reporter gene is transfected in MCF7 cells (containing endogenous ER), transcription is reflected by the level of luciferase expression.
A day before transfection, cells are split into a T75 flask at a cell density of 300,000 cells/mL (10 mL total) and allowed to attach overnight in a humidified CO2 incubator at 37° C.
Approximately 20 ug DNA is mixed in OptiMEM (Invitrogen) to a total volume of 650 μL. Following incubation, the OptiMEM-DNA mixture is added to the OptiMEM-Lipofectin mix and incubated for 15 minutes at 37° C. The DNA-Lipofectin mixture is then added directly to the T75 flask and the flask is returned to the incubator.
Normally, DMSO (used as a vehicle) is included to achieve a final concentration of 0.1% when added to the cells. Transfected cells are trypsinized, resuspended in DMEM/F12/10% charcoal-stripped serum and added to the 96-well plate at 25,000 cells/well in 90 μL of media. The plate is then returned to the incubator for 24 hours.
After incubation with compounds for 24 hours, Firefly and Renilla luciferase activities are measured to determine ER transcriptional activity. Media is removed from 96-well plates by decanting and blotting on paper towels.
One second total read time after a one second delay.
One second total read time after one second delay. If Firefly luciferase signal is high, Renilla assay must be done an hour after the Firefly assay due to incomplete squelching of Firefly signal.
as §1

[3] = remaining ERα protein at 10 μM ligand, MCF7 cells, relative to DMSO control
[4] = inflection point of the inhibition of transcription in MCF7 cells, 0.1 nM estradiol, 24 hours

Sequence of ER (endogenous, MCF7 cells) (P03372 whole entry): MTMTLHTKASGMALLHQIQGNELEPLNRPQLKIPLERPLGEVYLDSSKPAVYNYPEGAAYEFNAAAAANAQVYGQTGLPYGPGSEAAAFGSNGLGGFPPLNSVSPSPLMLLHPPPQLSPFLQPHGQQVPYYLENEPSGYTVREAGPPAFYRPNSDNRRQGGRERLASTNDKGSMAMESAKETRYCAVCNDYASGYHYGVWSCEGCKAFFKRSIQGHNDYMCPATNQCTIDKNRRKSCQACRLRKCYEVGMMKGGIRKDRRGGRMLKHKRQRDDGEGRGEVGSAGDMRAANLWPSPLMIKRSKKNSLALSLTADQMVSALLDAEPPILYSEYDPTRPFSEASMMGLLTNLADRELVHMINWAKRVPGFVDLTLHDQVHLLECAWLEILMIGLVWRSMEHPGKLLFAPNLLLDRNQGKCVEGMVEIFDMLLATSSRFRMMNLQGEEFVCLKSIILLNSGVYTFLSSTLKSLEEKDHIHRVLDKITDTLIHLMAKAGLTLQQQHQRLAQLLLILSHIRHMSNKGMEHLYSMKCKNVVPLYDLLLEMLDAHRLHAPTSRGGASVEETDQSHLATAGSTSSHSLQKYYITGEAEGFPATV
Sequence of ERα (P03372 whole entry): as above

Structure (SMILES): CC(C)c1ccccc1-c1sc2cc(OCN3C(=O)c4ccccc4S3(=O)=O)ccc2c1Oc1ccc(/C=C/C(=O)O)cc1 [Example 84, (E)-3-(4-((6-((1,1-dioxido-3-oxobenzo [d]isothiazol-2(3H)-yl)methoxy)-2-(2-isopropylphenyl)benzo[b]thiophen-3-yl)oxy)phenyl)acrylic acid]
- % ERα remaining [1, 3]: 12%
- IC50 [2, 4]: 44 nM

Structure (SMILES): CC(C)c1ccccc1-c1sc2cc(OC(=O)[C@@H](N)C(C)C)ccc2c1Oc1ccc(/C=C/C(=O)O)cc1 [Example 85, (S,E)-3-(4-((6-((2-amino-3-methylbutanoyl)oxy)-2-(2-isopropylphenyl)benzo [b]thiophen-3-yl)oxy)phenyl)acrylic acid hydrochloride]
- % ERα remaining [1]: 12%
- IC50 [2]: 7 nM

Structure (SMILES): CCC(C)c1ccccc1-c1sc2cc(O)ccc2c1Oc1ccc(/C=C/C(=O)O)cc1 (centres unmarked) [Example 86, (E)-3-(4-((2-(2-(sec-butyl)phenyl)-6-hydroxybenzo[b]thiophen-3-yl)oxy)phenyl)acrylic acid]
- IC50 ([1]; MCF7 cells): 0.2 nM
- % ERα remaining [1, 3]: 12%
- IC50 [2, 4]: 7 nM

Structure (SMILES): O=C(O)/C=C/c1ccc(Oc2c(-c3ccccc3C3CCCC3)sc3cc(O)ccc23)cc1 [Example 87, (E)-3-(4-((2-(2-cyclopentylphenyl)-6-hydroxybenzo[b]thiophen-3-yl)oxy)phenyl)acrylic acid]
- IC50 ([1]; MCF7 cells): 0.4 nM
- % ERα remaining [1, 3]: 15%
- IC50 [2, 4]: 14 nM

Structure (SMILES): O=C(O)/C=C/c1ccc(Oc2c(-c3ccccc3C3CCC3)sc3cc(O)ccc23)cc1 [Example 89, (E)-3-(4-((2-(2-cyclobutylphenyl)-6-hydroxybenzo[b]thiophen-3-yl)oxy)phenyl)acrylic acid]
- IC50 ([1]; MCF7 cells): 0.5 nM
- % ERα remaining [1, 3]: 18%
- IC50 [2, 4]: 19 nM

Structure (SMILES): O=C(O)/C=C/c1ccc(Oc2c(-c3cccc(F)c3C(F)(F)F)sc3cc(O)ccc23)cc1 [Example 90, (E)-3-(4-((2-(3-fluoro-2-(trifluoromethyl)phenyl)-6-hydroxybenzo[b]thiophen-3-yl)oxy)phenyl)acrylic acid]
- IC50 ([1]; MCF7 cells): 1.2 nM
- % ERα remaining [1, 3]: 15%
- IC50 [2, 4]: 26 nM

Structure (SMILES): COc1ccc(-c2sc3cc(O)ccc3c2Oc2ccc(/C=C/C(=O)O)cc2)c(C(F)(F)F)n1 [Example 91, (E)-3-(4-((6-hydroxy-2-(6-methoxy-2-(trifluoromethyl)pyridin-3-yl)benzo[b]thiophen-3-yl)oxy)phenyl)acrylic acid]
- % ERα remaining [1, 3]: 16%
- IC50 [2, 4]: 23 nM

Structure (SMILES): O=C(O)/C=C/c1ccc(Oc2c(-c3ccccc3CN3CCCC3)sc3cc(O)ccc23)cc1 [Example 92, (E)-3-(4-((6-hydroxy-2-(2-(pyrrolidin-1-ylmethyl)phenyl)benzo [b]thiophen-3-yl)oxy)phenyl)acrylic acid]
- % ERα remaining [1, 3]: 16%
- IC50 [2, 4]: 29 nM

Structure (SMILES): CC(C)c1ccccc1-c1sc2cc(O)ccc2c1Oc1ccc(CCC(=O)O)cc1 [Example 93, 3-(4-((6-hydroxy-2-(2-isopropylphenyl)benzo [b]thiophen-3-yl)oxy)phenyl)propanoic acid]
- IC50 ([1]; MCF7 cells): 1.6 nM
- % ERα remaining [1, 3]: 25%
- IC50 [2, 4]: 72 nM

Structure (SMILES): N#CCc1ccccc1-c1sc2cc(O)ccc2c1Oc1ccc(/C=C/C(=O)O)cc1 [Example 94, (E)-3-(4-((2-(2-(cyanomethyl)phenyl)-6-hydroxybenzo[b]thiophen-3-yl)oxy)phenyl)acrylic acid]
- % ERα remaining [1, 3]: 20%
- IC50 [2, 4]: 86 nM

Structure (SMILES): Cn1nnc(Cc2ccccc2-c2sc3cc(O)ccc3c2Oc2ccc(/C=C/C(=O)O)cc2)n1 [Example 96, (E)-3-(4-((6-hydroxy-2-(2-((2-methyl-2H-tetrazol-5-yl)methyl)phenyl)benzo [b]thiophen-3-yl)oxy)phenyl)acrylic acid]
- IC50 ([1]; MCF7 cells): 1.7 nM
- % ERα remaining [1, 3]: 14%
- IC50 [2, 4]: 212 nM

Structure (SMILES): O=C(O)/C=C/c1ccc(Oc2c(-c3ccccc3CN3CCC3)sc3cc(O)ccc23)cc1 [Example 97, (E)-3-(4-((2-(2-(azetidin-1-ylmethyl)phenyl)-6-hydroxybenzo[b]thiophen-3-yl)oxy)phenyl)acrylic acid]
- IC50 ([1]; MCF7 cells): 25 nM
- % ERα remaining [1, 3]: 18%
- IC50 [2, 4]: 292 nM

Structure (SMILES): CC(C)c1cccc(-c2sc3cc(O)ccc3c2Oc2ccc(/C=C/C(=O)O)cc2)c1 [Example 98, (E)-3-(4-((6-hydroxy-2-(3-isopropylphenyl)benzo[b]thiophen-3-yl)oxy)phenyl)acrylic acid]
- IC50 ([1]; MCF7 cells): 6.6 nM
- % ERα remaining [1, 3]: 19%
- IC50 [2, 4]: 382 nM

Structure (SMILES): O=C(O)/C=C/c1ccc(Oc2c(-c3ccc(F)cc3CN3CCCC3=O)sc3cc(O)ccc23)cc1 [Example 99, (E)-3-(4-((2-(4-fluoro-2-((2-oxopyrrolidin-1-yl)methyl)phenyl)-6-hydroxybenzo[b]thiophen-3-yl)oxy)phenyl)acrylic acid]
- % ERα remaining [1, 3]: 14%
- IC50 [2, 4]: 544 nM

Structure (SMILES): Cc1ncccc1-c1sc2cc(O)ccc2c1Oc1ccc(/C=C/C(=O)O)cc1 [Example 100, (E)-3-(4-((6-hydroxy-2-(2-methylpyridin-3-yl)benzo[b]thiophen-3-yl)oxy)phenyl)acrylic acid]
- IC50 ([1]; MCF7 cells): 5.4 nM
- % ERα remaining [1, 3]: 12%
- IC50 [2, 4]: 669 nM

Structure (SMILES): CC(C)c1ccccc1-c1sc2c(F)c(O)ccc2c1Oc1ccc(/C=C/C(=O)O)cc1 [Example 101, (E)-3-(4-((7-fluoro-6-hydroxy-2-(2-isopropylphenyl)benzo [b]thiophen-3-yl)oxy)phenyl)acrylic acid]
- IC50 ([1]; MCF7 cells): 0.2 nM
- % ERα remaining [1, 3]: 18%
- IC50 [2, 4]: 4.2 nM

Structure (SMILES): CCCc1nnc(/C=C/c2ccc(Oc3c(-c4ccccc4C(C)C)sc4cc(O)ccc34)cc2)o1 [Example 103, (E)-2-(2-isopropylphenyl)-3-(4-(2-(5-propyl-1,3,4-oxadiazol-2-yl)vinyl)phenoxy)benzo [b]thiophen-6-ol]
- IC50 ([1]; MCF7 cells): 3.3 nM
- % ERα remaining [1, 3]: 31%
- IC50 [2, 4]: 12 nM

Structure (SMILES): CC(C)c1ccccc1-c1sc2cc(O)ccc2c1Oc1ccc(/C=C/c2nnc(C3CC3)o2)cc1 [Example 104, (E)-3-(4-(2-(5-cyclopropyl-1,3,4-oxadiazol-2-yl)vinyl)phenoxy)-2-(2-isopropylphenyl)benzo [b]thiophen-6-ol]
- % ERα remaining [1, 3]: 29%
- IC50 [2, 4]: 32 nM

Structure (SMILES): Cc1nnc(/C=C/c2ccc(Oc3c(-c4ccccc4C(C)C)sc4cc(O)ccc34)cc2)[nH]1 [Example 105, (E)-2-(2-isopropylphenyl)-3-(4-(2-(5-methyl-4H-1,2,4-triazol-3-yl)vinyl)phenoxy)benzo [b]thiophen-6-ol]
- IC50 ([1]; MCF7 cells): 1.1 nM
- % ERα remaining [1, 3]: 25%
- IC50 [2, 4]: 14 nM

Structure (SMILES): CCCc1nnc(/C=C/c2ccc(Oc3c(-c4ccccc4C(C)C)sc4cc(O)ccc34)cc2)[nH]1 [Example 107, (E)-2-(2-isopropylphenyl)-3-(4-(2-(5-propyl-4H-1,2,4-triazol-3-yl)vinyl)phenoxy)benzo [b]thiophen-6-ol]
- IC50 ([1]; MCF7 cells): 4 nM
- % ERα remaining [1, 3]: 29%
- IC50 [2, 4]: 66 nM

Structure (SMILES): O=C(O)/C=C/c1ccc(Oc2c(-c3ccccc3CC(F)(F)F)sc3cc(O)ccc23)cc1 [Example 109, (E)-3-(4-((6-hydroxy-2-(2-(2,2,2-trifluoroethyl)phenyl)benzo[b]thiophen-3-yl)oxy)phenyl)acrylic acid]
- IC50 ([1]; MCF7 cells): 0.2 nM
- % ERα remaining [1, 3]: 16%
- IC50 [2, 4]: 12 nM

Structure (SMILES): CC(F)c1ccccc1-c1sc2cc(O)ccc2c1Oc1ccc(/C=C/C(=O)O)cc1 (centres unmarked) [Example 111, (E)-3-(4-((2-(2-(1-fluoroethyl)phenyl)-6-hydroxybenzo[b]thiophen-3-yl)oxy)phenyl)acrylic acid]
- IC50 ([1]; MCF7 cells): 0.3 nM
- % ERα remaining [1, 3]: 17%
- IC50 [2, 4]: 25 nM
